Experimental data: patent publication US10494338B2, “Prostaglandin derivative” (AGC INC., priority 2016, dated 2019)

What was measured:
[1] = tested on: rat platelet aggregation; test: Inhibitory action on rat platelet aggregation in vitro (ADP-induced, platelet-rich plasma); format: cell-based; details: SD rat PRP, ADP 2 μmol/L; relative activity from IC50, activity of IC50 value of PGE1 = 100
Protocol: Experimental Example 2: Evaluation of Inhibitory Action on Rat Platelet Aggregation In Vitro (1) Preparation of Rat Platelet-Rich Plasma In the same manner as in the above-mentioned Experimental Example 1(1), blood samples were collected from the abdominal artery of 8- to 9-week-old male SD rats. PRP was diluted with PPP and the number of platelet was adjusted to 63.2×10^4/μL. (2) Measurement of Platelet Aggregation Ability In the same manner as in the above-mentioned Experimental Example 1(2) except that the final concentration of ADP was 2 μmol/L, the compound of the present invention, prostaglandin E1 (PGE1:positive control substance) or vehicle control was added as a test substance, and the maximum response of aggregation was measured. (3) Evaluation of Platelet Aggregation Inhibitory Action In the same manner as in the above-mentioned Experimental Example 1(3), IC50 values were determined from the aggregation inhibition ratio of the test substance, and the relative activity (%) of each test substance was calculated by defining the activity of IC50 value of PGE1 as 100.

[2] = tested on: rat cauda equine blood flow; test: Increasing effect on rat cauda equine blood flow (intravenous infusion, laser Doppler); format: in vivo; details: Wistar rat, tail vein infusion 10 min; relative activity from ED20 (dose increasing cauda equine blood flow by 20%), limaprost = 100
Protocol: Experimental Example 4: Evaluation of Increasing Effect on rat Cauda Equine Blood Flow
(1) Administration of Test Substance
The compound of the present invention or limaprost (positive control substance) as a test substance was injected at 0.263, 0.789 and 2.63 nmol/kg in principle to Slc:Wistar male rats (body weight: about 200-250 g) from the tail vein at a flow rate of 0.2 mL/min for 10 min with an infusion pump (model 11, Harvard Apparatus). A vehicle (1 vol % DMSO-physiological saline) was similarly injected to the control group (5-6 […] in each group).
(2) Measurement of Cauda Equine Blood Flow
The rats were fixed in a prone position under halothane anesthesia and kept warm by a heater (Nippon Medical & Chemical Instruments Co., Ltd.). The lower back of the rats was shaved, dissected to expose the spine, the vertebral arch of the fifth lumbar vertebra was excised and cauda equina was exposed. The cauda equine blood flow was measured by a laser Doppler blood flow meter (TBF-LN1, Unique Medical Co., Ltd.) via a non-contact type probe (LP-NC special type, Unique Medical Co., Ltd.) fixed perpendicularly to a position of the exposed cauda equina upper by about 1 mm from before administration of each test substance until 60 min after the administration. The open wound was filled with liquid paraffin to prevent drying of the exposed cauda equina.
The obtained data was taken into a personal computer via PowerLab8/30 (registered trade mark, ML870, ADInstruments) every 1/400 second, and analyzed using LabChart (registered trade mark, ADInstruments). The analysis time points were before administration (administration 0 min), and 3, 5, 8, 10, 13, 15, 18, 20, 30, 40, 50 and 60 min after administration, or before administration (administration 0 min), and 3, 5, 10, 15, 20, 30, 40, 50 and 60 min after administration. The mean value for 10 seconds at each time point was taken as the measurement value, and the change rate (%) relative to the value before administration was obtained by the following equation. The rate of change (%)=(measurement value at each time point after administration−measurement value before administration)/measurement value before administration×100
Furthermore, difference in the rate of change (%) relative to the control group at each time point [Δ change rate (%)] was calculated by the following equation, and the maximum value of the Δ change rate was taken as the maximum change rate. Δchange rate (%)=change rate of each individual at each time point−mean of change rate of control group
From the maximum change rate at each dose of the test substance, the dose at which the cauda equine blood flow increases by 20% (ED20 value) was determined by linear regression equation, and the relative activity (%) of each test substance was calculated based on the activity of ED20 value of limaprost as 100.

[3] = tested on: human platelet aggregation; test: Human platelet aggregation inhibitory action in vitro (ADP-induced, platelet-rich plasma); format: cell-based; details: human PRP, ADP 3 μmol/L; relative activity from IC50, activity of IC50 value of limaprost = 100
Protocol: Experimental Example 1: Evaluation of Human Platelet Aggregation Inhibitory Action In Vitro
(1) Preparation of Human Platelet-Rich Plasma
Using 3.8 w/v % sodium citrate as an anticoagulant, blood samples were collected from human brachial vein at a ratio of sodium citrate solution:blood (volume ratio)=1:9, and an upper layer of platelet-rich plasma (PRP) was collected by centrifugation (120×g, 10 min). Platelet poor plasma (PPP) was prepared from PRP-free blood by centrifugation (1700×g, 10 min). The number of platelets in PRP was measured and adjusted to 25×10^4/μL by diluting with PPP.
(2) Measurement of Platelet Aggregation Ability
The platelet aggregation ability was measured by a platelet aggregometer (PRP313 M, IMI Co., Ltd.) according to the method of Born (Nature, 1962, vol. 194, pp. 927-929). PRP (190 μL) was placed in a glass cuvette and mounted on the platelet aggregometer. Then, 5 μL of the compound of the present invention, limaprost (positive control substance) or vehicle control (0.25 vol % dimethyl sulfoxide [DMSO]) was added as a test substance, and the mixture was incubated at 37° C. for 10 min. ADP (LMS Co., Ltd.) (5 μL) as a platelet aggregation agent was added at 3 μmol/L in a final concentration to cause aggregation, and the maximum response of the aggregation was measured.
(3) Evaluation of Inhibitory Action on Platelet Aggregation
The aggregation inhibition ratio of a test substance was determined by defining the maximum aggregation ratio of control as 100%, and IC50 value was determined by using “Dx calculation (linear fitting): non-logit transformation” of SAS System Version 9.1.3 (Stat Preclinica Client Ver. 1.1 SAS Institute Japan, Ltd.). Furthermore, the relative activity (%) of each test substance was calculated by defining the activity of IC50 value of limaprost as 100.

[4] = tested on: guinea pig platelet aggregation; test: Persistent inhibitory action on guinea pig platelet aggregation ex vivo after single oral dose; format: in vivo; details: for AUC: 1-inhibition 0 hr / AUC: 6-inhibition 0 hr: AUC of maximum aggregation inhibition ratio (%) vs time (hr), oral IC50 dose; for AUC: 1-inhibition 0 hr: from 1 hr after administration to inhibition 0 hr; for AUC: 6-inhibition 0 hr: from 6 hr after administration to inhibition 0 hr; for Inhibition 0 hr: assumed time at which maximum aggregation inhibition ratio became 0%, single oral dose at IC50 dose; for Inhibition 0 hr / single oral dose showing the IC50 value: guinea pig; for single oral dose showing the IC50 value: blood collected 4 hr later, ADP 0.5 μmol/L; for AUC: 1-inhibition 0 hr (% relative to limaprost) / AUC: 6-inhibition 0 hr (% relative to limaprost): value in brackets, limaprost = 100
Protocol: Experimental Example 3: Evaluation of Persistent Inhibitory Action on Guinea Pig Platelet Aggregation Ex Vivo
(1) Measurement of IC50 Value
As a test substance, a single oral dose of the compound of the present invention (3 doses of 79, 132 and 263 nmol/kg), limaprost (positive control substance: 3 doses of 79, 263 and 789 nmol/kg) or vehicle control (water for injection containing 0.26 vol % DMSO) was administered at 10 mL/kg to 4- to 10-week-old male Hartley guinea pigs. Blood samples were collected from the abdominal artery 4 hr later, platelet aggregation ability was measured, and the IC50 value was calculated from the aggregation inhibitory activity (aggregation was induced by 0.5 μmol/L ADP) in the same manner as in the above-mentioned Experimental Example 1(3).
(2) Administration of Test Substance and Preparation of Platelet-Rich Plasma
Blood samples were collected from the abdominal artery of the guinea pig at 1, 2, 4, 6, 10, 16 and 24 hr later. PRP was diluted with PPP and the number of platelet was adjusted to about 60×10^4/μL in the same manner as in the above-mentioned Experimental Example 1(1) (n=3−4).
(3) Measurement of Platelet Aggregation
In the same manner as in the above-mentioned Experimental Example 1(2), the platelet aggregation ability was measured according to the method of Born. PRP (190 μL) was placed in a glass cuvette, mounted on the platelet aggregometer and incubated at 37° C. for 10 min. ADP (10 μL) as platelet aggregation agent was added at 0.5 μmol/L in a final concentration to cause aggregation, and the maximum reaction of the aggregation was measured.
(4) Evaluation of Persistent Inhibitory Action on Platelet Aggregation
The maximum aggregation inhibition ratio of the test substance based on the maximum aggregation inhibition ratio of the control group as 0% was determined from the maximum coagulation ratio of the control group and the maximum coagulation ratio of the test substance when IC50 values were calculated. […] In addition, the assumed time at which the maximum aggregation inhibition ratio became 0% on the graph was determined as the time at which inhibition of aggregation disappeared (inhibition 0 hr).

SMILES | Relative activity (%) [1] [%] | Relative activity (%) [2] [%] | Relative activity (%) [3] [%] | AUC: 1-inhibition 0 hr [4] [%·h] | AUC: 6-inhibition 0 hr [4] [%·h] | Inhibition 0 hr [4] [h] | single oral dose showing the IC50 value [4] [nmol/kg] | AUC: 1-inhibition 0 hr (% relative to limaprost) [4] [%] | AUC: 6-inhibition 0 hr (% relative to limaprost) [4] [%]
CCC#CC[C@H](C)C(O)/C=C/[C@H]1[C@H](O)CC(=O)[C@@H]1CCSCCCC(=O)OC (mixture of isomers) [compound (1)-1, methyl 4-((2-((1R,2R,3R)-3-hydroxy-2-((1E,3RS,4S)-3-hydroxy-4-methylnon-1-en-6-yn-1-yl)-5-oxocyclopentyl)ethyl)thio)butanoate] | 169 | – | – | – | – | – | – | – | –
CCC#CC[C@H](C)C(O)/C=C/[C@H]1[C@H](O)CC(=O)[C@@H]1CCSC/C=C/C(=O)OC (mixture of isomers) [compound (1)-2, methyl (2E)-4-((2-((1R,2R,3R)-3-hydroxy-2-((1E,3RS,4S)-3-hydroxy-4-methylnon-1-en-6-yn-1-yl)-5-oxocyclopentyl)ethyl)thio)but-2-enoate] | 62 | – | – | – | – | – | – | – | –
CCC#CC[C@H](C)[C@H](O)/C=C/[C@H]1[C@H](O)CC(=O)[C@@H]1CCCCCCC(=O)OCc1oc(=O)oc1C [compound (1)-4, (5-methyl-2-oxo-1,3-dioxol-4-yl)methyl 7-((1R,2R,3R)-3-hydroxy-2-((1E,3S,4S)-3-hydroxy-4-methylnon-1-en-6-yn-1-yl)-5-oxocyclopentyl)heptanoate] | – | 147 | 643 | – | – | – | – | – | –
CCC#CC[C@H](C)[C@H](O)/C=C/[C@H]1[C@H](O)CC(=O)[C@@H]1CCCCCCC(=O)OCC(=O)C(C)(C)C [compound (1)-5, 3,3-dimethyl-2-oxobutyl 7-((1R,2R,3R)-3-hydroxy-2-((1E,3S,4S)-3-hydroxy-4-methylnon-1-en-6-yn-1-yl)-5-oxocyclopentyl) heptanoate] | – | – | 161 | – | – | – | – | – | –
CCC#CC[C@H](C)[C@H](O)/C=C/[C@H]1[C@H](O)CC(=O)[C@@H]1CCCCCCC(=O)O [compound (1)-6, 7-((1R,2R,3R)-3-hydroxy-2-((1E,3S,4S)-3-hydroxy-4-methylnon-1-en-6-yn-1-yl)-5-oxocyclopentyl)heptanoic acid] | – | 383 | 923 | – | – | – | – | – | –
CCC#CC[C@H](C)[C@H](O)/C=C/[C@H]1[C@H](O)CC(=O)[C@@H]1CCCC/C=C/C(=O)O [compound (1)-7, (2E)-7-((1R,2R,3R)-3-hydroxy-2-((1E,3S,4S)-3-hydroxy-4-methylnon-1-en-6-yn-1-yl)-5-oxocyclopentyl)hept-2-enoic acid] | – | 375 | 1319 | 713 | 526 | >24 | 168 | 202 | 359
C[C@@H](CC#CC1CC1)[C@H](O)/C=C/[C@H]1[C@H](O)CC(=O)[C@@H]1CCCCCCC(=O)O [compound (1)-9, 7-((1R,2R,3R)-2-((1E,3S,4S)-7-cyclopropyl-3-hydroxy-4-methylhept-1-en-6-yn-1-yl)-3-hydroxy-5-oxocyclopentyl)heptanoic acid] | – | 311 | 1200 | 627 | 401 | 19.7 | 178 | 178 | 273
C[C@@H](CC#CC1CC1)[C@H](O)/C=C/[C@H]1[C@H](O)CC(=O)[C@@H]1CCCC/C=C/C(=O)O [compound (1)-10, (2E)-7-((1R,2R,3R)-2-((1E,3S,4S)-7-cyclopropyl-3-hydroxy-4-methylhept-1-en-6-yn-1-yl)-3-hydroxy-5-oxocyclopentyl)hept-2-enoic acid] | – | 550 | 1481 | 719 | 508 | >24 | 187 | 204 | 346
CCCC[C@H](C)C[C@H](O)/C=C/[C@H]1[C@H](O)CC(=O)[C@@H]1CCCC/C=C/C(=O)O [limaprost, (2E)-7-((1R,2R,3R)-3-hydroxy-2-((1E,3S,5S)-3-hydroxy-5-methylnon-1-en-1-yl)-5-oxocyclopentyl)hept-2-enoic acid, reference compound] | – | 100 | 100 | 353 | 147 | 12.1 | 266 | 100 | 100
